This note sets out measurements from publication PMC3551756, “HIV-1 Fusion Is Blocked through Binding of GB Virus C E2D Peptides to the HIV-1 gp41 Disulfide Loop” (PLoS ONE, 2013).

The subject of one assay is CCR5. As to the kind of experiment: CCR5 surface expression, flow cytometry. To be noted: PBMC and TZM-bl cells; E2 peptides 25 µM, RANTES 50 nM; 6 hr; FACS; RTCN vs mock; average of two independent experiments each in triplicate. The class given is cell-based, human. On the procedure: PHA/IL-2-stimulated PBMC or TZM-bl cells were incubated with E2 peptides (25 µM), phorbol 12-myristate 13-acetate (PMA; 40 ng/ml), SDF-1α (1 µg/ml) or RANTES (50 nM) for 6 hr. CD4, CXCR4 and CCR5 surface expression was analyzed by using standard FACS staining protocols. Cells were washed with PBS and incubated for 30 min at 4°C with PE-labeled antibodies (CD4 clone SK3, CXCR4 clone 12G5, and CCR5 clone 2D7, BD Biosciences, Germany). Subsequently, washed cells were resuspended in PBS and analyzed with a FACSCalibur™ flow cytometer (BD Biosciences, Germany).
The non-HIV-1-inhibitory peptide P28 derived from the C-terminal part of E2 (residue 271 to 290), served as a negative control.
CD4, CXCR4 and CCR5 expression on PBMC (A) and TZM-bl cells (B) after preincubation with E2 peptides were determined by flow cytometry analysis. […] Percentages illustrate the ratio-to-cell-negative (RTCN) values that were calculated from the percentage of positive cells and the fluorescence intensity of peptide-incubated cells compared to mock-incubated cells. Columns show average values ±SD of two independent experiments each performed in triplicate. *: p<0.05; **: p<0.01 (mock- vs. inhibitor-incubated cells).

Assay [1] concerns HIV-1 NL4-3 / TZM-bl cells. As to the kind of experiment: HIV-1 virion-based (BlaM-Vpr) virus-cell fusion assay. The following applies: standard (pre-CD4 binding) and TAS (post-CD4 binding, 23°C 1 h then 37°C 2 hr); E2 peptides 20 µM, AMD-3100 10 µM, 2F5 0.5 µg/ml, b12 and B4 0.3 µg/ml; five independent experiments each in triplicate.
Method: HIV-1 virions containing the BlaM-Vpr chimera were produced as previously described [33]. Briefly, 293T cells were co-transfected with pNL4-3 proviral DNA, pCMV-BlaM-Vpr, and pAdVAntage vectors. After 2 days of cultivation, the virus-containing supernatant was centrifuged for 10 min at 300×g to remove cellular debris. The HIV-1 virion-containing supernatant was overlaid onto a 20% sucrose cushion and ultracentrifuged at 35000×g at 4°C for 90 min. The resulting pellet was resuspended in medium and aliquots were frozen at −80°C until usage.
The virion-based fusion assay was performed essentially as described elsewhere [41]. Briefly, 5×10^4 TZM-bl cells were infected with sucrose-purified HIV-1 NL4-3 virions containing BlaM-Vpr (5 ng p24-Gag per approach). Under temperature-arrested state (TAS) conditions, binding of the HI virions to target cells was allowed at low temperature via spinning inoculation, for which virions were added to cells and centrifuged at 2095×g, 4°C for 30 min. […] BlaM activity was quantified using a fluorescence plate reader. The extent of virus-cell fusion was determined from the ratio of blue (460 nm) and green (510 nm) emission upon exciting the cells at 405 nm.
To find out whether early or late steps of HIV-1 entry are affected by the E2 peptides, the E2 peptide activity was determined before and after gp120/CD4 engagement using the Vpr-β-lactamase (Vpr-BlaM) enzyme-based virus-cell fusion assay under standard (pre-CD4 binding) and temperature-arrested state (TAS; post-CD4 binding) conditions, respectively.
The HIV-inhibitory activity of known HIV-1 entry inhibitors or respective E2 peptides was determined using a virus-cell fusion assay under standard (respective inhibitors were added simultaneously to HIV NL4-3BlaM-Vpr inoculum: pre-CD4 binding) or under TAS (temperature-arrested state) conditions (respective inhibitors were added at low temperature of 23°C for 1 h after spin-inoculation [4°C] and removal of unbound HIV-1 particles: post-CD4 binding). […] Percentages were calculated in relation to mock-treated cells. […]
A further assay deals with gp41MN. Put plainly: Competitive ELISA, E2 peptides versus gp41 mAbs on immobilized gp41MN. To be noted: increasing peptide, three independent experiments each in duplicate; for inhibition of F240 binding to gp41: mAb F240 (disulfide loop); for inhibition of F240 binding to gp41 / inhibition of T32 binding to gp41: immobilized gp41MN; for inhibition of T32 binding to gp41: mAb T32 (disulfide loop); for inhibition of gp41 binding of 246-D, D50, 5F3, 2F5, 4E10 and Chessie 8: mAbs other than F240 and T32, immobilized gp41MN. The class given is binding, HIV-1. On the procedure: Flat-bottom, 96-well Microtest ELISA plates (Sarstedt, Germany) were coated overnight at 4°C with recombinant HIV-1 gp120 (0.5 µg/ml), gp41 (0.22 µg/ml) proteins, or with streptavidin (4 µg/ml) in coating buffer (0.1 M NaHCO3, 0.1 M Na2CO3, pH 9.87). Nonspecific binding was blocked (blocking buffer: 1% BSA, 0.1% Tween-20 in phosphate buffer, pH 7.2) for 1 h at room temperature, followed by washing steps (wash buffer: 0.1% Tween in phosphate buffer, pH 7.2). Streptavidin-coated plates were then incubated with gp41 disulfide loop peptides (Loop36ox or Loop36s; 2.5 µM). All plates were then incubated with recombinant E2_340-Fc or Fc protein in serial dilutions in sample buffer (phosphate buffer, pH 7.2) for 3 hr at room temperature. To perform the competitive ELISAs, the recombinant E2_340-Fc protein was adjusted at 5 µg/ml and the monoclonal gp41 antibodies (246-D, F240, T32, D50, 2F5, 4E10, Chessie 8 [all: NIH AIDS Research and Reference Reagent Program], and 5F3 [Polymun, Austria]) at […]. After washing procedure, the plates were incubated for 1 h with polyclonal rabbit anti-human IgG peroxidase antibody (Dako, Germany) 1∶6000 in sample buffer and washed. Plates were developed with TMB peroxidase substrate solution (KPL, USA), or with OPD/H2O2 solution in the dark. Absorbances (ODs) were read at 450 or 492 nm, respectively, using a multi-channel photometer (ELISA-Reader AxSYM, Abbott Laboratory, USA).
(A) Illustration of gp41 variants (strains IIIB, MN) and peptides (N36, C34) used in ELISA as well as the binding epitopes of different monoclonal gp41 antibodies. Gp41 consists of the N-terminal fusion peptide (FP), the N- and C-heptad repeats (NHR, CHR) that are connected by the disulfide loop region (C-C loop), the membrane proximal external region (MPER), the α-helical transmembrane-spanning domain (TM), and the cytoplasmic tail (CP). […] Each sample was tested in triplicate. […] (C) Competitive binding of E2 peptides and different gp41 targeting mAbs to immobilized recombinant gp41MN. Simultaneously to mAb incubation E2 peptides were added with increasing amounts. […] The graphs show average values of three independent experiments each performed in duplicate.
Finally, we performed a direct binding assay with biotin-tagged 36mer gp41 disulfide loop peptides (residues from 588 to 623 according to HIV gp160HxB2) and GBV-C E2_340-Fc. We immobilized via streptavidin an oxidized (closed loop) or a linear variant of the disulfide loop, in which the cysteine residues were replaced with serine (Table S1) onto plates and the binding of graded concentrations of GBV-C E2_340-Fc was monitored with HRP-anti-human antibodies.

A further assay relates to F240. Put plainly: Unspecific binding of E2 peptides to antibody F240. The following applies: data not shown.
Another assay concerns T32. Put plainly: Unspecific binding of E2 peptides to antibody T32. To be noted: data not shown.

Consider `CC(=O)N[C@@H](CC(C)C)C(=O)N[C@@H](CS)C(=O)N[C@@H](CC(=O)O)C(=O)N[C@@H](CS)C(=O)N1CCC[C@H]1C(=O)N[C@@H](CC(N)=O)C(=O)NCC(=O)N1CCC[C@H]1C(=O)N[C@@H](Cc1c[nH]c2ccccc12)C(=O)N[C@H](C(=O)N[C@@H](Cc1c[nH]c2ccccc12)C(=O)N[C@H](C(=O)N1CCC[C@H]1C(=O)N[C@@H](C)C(=O)N[C@@H](Cc1ccccc1)C(=O)N[C@@H](CS)C(=O)N[C@@H](CCC(N)=O)C(=O)N[C@@H](C)C(=O)N[C@H](C(=O)NCC(=O)O)C(C)C)C(C)C)C(C)C` [P6-2], for which the CCR5 surface presentation result with CCR5 is reported as “no relevant effect on HIV-1 receptor presentation”. Besides, the “inhibition of virus-cell fusion, standard versus TAS conditions” value in assay [1] is “full activity under both conditions”. Moreover, in the assay with gp41MN, the “inhibition of F240 binding to gp41” value was “inhibited in a dose-dependent manner”; the “inhibition of T32 binding to gp41” value is reported as “inhibited in a dose-dependent manner”; the “inhibition of gp41 binding of 246-D, D50, 5F3, 2F5, 4E10 and Chessie 8” value is “Of the eight antibodies, only the gp41 interaction of F240 and T32 was inhibited”. For the same molecule, the “unspecific binding to antibody F240” value in the assay with F240 was “No unspecific binding”. In addition, the “unspecific binding to antibody T32” value in the assay on T32 was “No unspecific binding”.

As for “Ac-WDRGNVTLLCDCPNGPWVWV [P4-7, 20 mer peptide presenting amino acids 37 to 56 of the GBV-C E2 protein]”, the CCR5 surface presentation entry in the assay on CCR5 is reported as “no relevant effect on HIV-1 receptor presentation”. Also, the “inhibition of virus-cell fusion, standard versus TAS conditions” value in assay [1] was “full activity under both conditions”. Moreover, in the assay with gp41MN, the “inhibition of F240 binding to gp41” value is given as “inhibited in a dose-dependent manner”; the “inhibition of T32 binding to gp41” value is listed as “inhibited in a dose-dependent manner”; the “inhibition of gp41 binding of 246-D, D50, 5F3, 2F5, 4E10 and Chessie 8” value is “Of the eight antibodies, only the gp41 interaction of F240 and T32 was inhibited”. Further, the “unspecific binding to antibody F240” value in the assay on F240 is on record as “No unspecific binding”. Besides, the “unspecific binding to antibody T32” value with T32 is “No unspecific binding”.
